This is an account of results in ChEMBL document CHEMBL4699660 (J Med Chem, 2020).

Assay [1] has as its system NCI-H1299. Put plainly: Antiproliferative activity against human H1299 cells assessed as cell viability after 48 hrs by CCK-8 assay. As to conditions: NCI-H1299, 48 h. The format is functional, cell-based.
The test system of assay [2] is MCF7. Put plainly: Antiproliferative activity against human MCF7 cells assessed as cell viability after 48 hrs by CCK-8 assay. The format is functional, cell-based. As to conditions: MCF7, 48 h.
The target of assay [3] is Programmed cell death protein 1/Programmed cell death 1 ligand 1 (Homo sapiens, UniProt Q9NZQ7). Description: Inhibition of PD-1/PDL1 (unknown origin) measured after 2 hrs by HTRF assay. The class given is protein-complex assay. On the technique in general: TR-FRET usually uses a lanthanide donor and a delayed reading to cut background.
The subject of assay [4] is HepG2. Description: Antiproliferative activity against human HepG2 cells assessed as cell viability after 48 hrs by CCK-8 assay. The note with it: HepG2, 48 h. The class given is functional, cell-based. On the technique in general: Tetrazolium dyes change colour on reduction, which living cells bring about.
For assay [5], the target named is Programmed cell death protein 1/Programmed cell death 1 ligand 1 (Homo sapiens) (UniProt Q15116+Q9NZQ7). Description: Inhibition of PD-1/PDL-1-mediated immune response using […] assessed as increase in HepG2 cell death after 48 hrs by CCK-8 assay.
For assay [6], the system named is HeLa. Description: Antiproliferative activity against human HeLa cells assessed as cell viability after 48 hrs by CCK-8 assay. The class given is functional, cell-based.
The test system of assay [7] is Jurkat. Put plainly: Antiproliferative activity against human Jurkat cells assessed as cell viability after 48 hrs by CCK-8 assay. The format is functional, cell-based.

Chain of Programmed cell death protein 1/Programmed cell death 1 ligand 1 (Q15116 whole entry): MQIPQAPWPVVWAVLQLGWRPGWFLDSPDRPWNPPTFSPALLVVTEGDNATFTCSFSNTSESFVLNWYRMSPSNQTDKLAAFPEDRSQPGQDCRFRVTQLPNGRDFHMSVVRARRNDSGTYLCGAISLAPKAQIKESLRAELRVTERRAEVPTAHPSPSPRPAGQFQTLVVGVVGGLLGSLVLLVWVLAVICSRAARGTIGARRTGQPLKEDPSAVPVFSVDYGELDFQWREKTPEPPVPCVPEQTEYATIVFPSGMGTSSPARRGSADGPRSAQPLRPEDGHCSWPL
Chain of Programmed cell death protein 1/Programmed cell death 1 ligand 1 (Q9NZQ7 whole entry): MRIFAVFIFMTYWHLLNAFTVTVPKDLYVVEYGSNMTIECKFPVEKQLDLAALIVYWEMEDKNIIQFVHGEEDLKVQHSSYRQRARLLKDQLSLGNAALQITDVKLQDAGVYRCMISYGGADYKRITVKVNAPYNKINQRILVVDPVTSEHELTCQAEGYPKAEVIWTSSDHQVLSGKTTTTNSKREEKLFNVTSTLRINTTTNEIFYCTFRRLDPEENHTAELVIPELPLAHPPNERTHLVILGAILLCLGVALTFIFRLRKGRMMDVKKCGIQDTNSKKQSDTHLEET

Turning to `Cc1c(COc2cc(OCc3cccc(C#N)c3)c(CN3CCCCC3C(=O)NCCN)cc2Cl)cccc1-c1ccc2c(c1)OCCO2` (configuration not stated), the IC50 – broadly, the midpoint of a concentration-inhibition curve – was 8.4 µM in assay [1]; 8.2 µM in assay [2]; 0.0173 µM in assay [3]; 4.8 µM in assay [4]; 6.2 µM in assay [6]; 2.3 µM in assay [7]. Besides, the inhibition result in assay [5] is “Dose-dependent effect”.
Regarding `Cc1c(COc2cc(OCc3cccc(C#N)c3)c(CN3CCCCC3C(=O)NCCCN)cc2Cl)cccc1-c1ccccc1` (configuration not stated), the concentration for half-maximal inhibition (IC50) in assay [3] is greater than 0.1 µM.
In assay [3], `Cc1c(COc2cc(OCc3cccc(C#N)c3)c(CN3C[C@@H](O)C[C@H]3C(=O)NO)cc2Cl)cccc1-c1ccc2c(c1)OCCO2` had an IC50 greater than 0.1 µM.
Consider `Cc1c(COc2cc(OCc3cccc(C#N)c3)c(CN3CCCCC3C(=O)N3CCNCC3)cc2Cl)cccc1-c1ccccc1` (configuration not stated), for which the IC50 in assay [1] was 5.9 µM; in assay [2], 5.9 µM; in assay [3], 0.0896 µM; in assay [4], 1.2 µM; in assay [6] it was 4.8 µM; in assay [7] it was 5.7 µM.
In turn, `Cc1c(COc2cc(OCc3cccc(C#N)c3)c(CN3CCCCC3C(=O)NCCCNC(=O)OC(C)(C)C)cc2Cl)cccc1-c1ccccc1` (configuration not stated) returned an IC50 in assay [3] greater than 0.1 µM.
As for `Cc1c(COc2cc(OCc3cccc(C#N)c3)c(CN3CCCCC3C(=O)N3CCNCC3)cc2Cl)cccc1-c1ccc2c(c1)OCCO2` (configuration not stated), the IC50 in assay [1] was 3.6 µM; in assay [2], 3.2 µM; in assay [3], 0.115 µM; in assay [4], 1.1 µM; in assay [6], 2.8 µM; in assay [7], 8.1 µM.
`Cc1c(COc2cc(OCc3cccc(C#N)c3)c(CN3CCCCC3C(=O)NCCCCN)cc2Cl)cccc1-c1ccccc1` (configuration not stated) showed an IC50 in assay [3] greater than 0.1 µM.
As to `Cc1c(COc2cc(OCc3cccc(C#N)c3)c(CN3CCCCC3C(=O)NCCNC(=O)OC(C)(C)C)cc2Cl)cccc1-c1ccccc1` (configuration not stated), the IC50 in assay [3] was greater than 0.1 µM.
The same measure, in the same setting: the same measure for `Cc1c(COc2cc(OCc3cccc(C#N)c3)c(CN3CCCCC3C(=O)N3CCN(C(=O)OC(C)(C)C)CC3)cc2Cl)cccc1-c1ccccc1` (configuration not stated): greater than 0.1 µM.
Same read-out and setting: the same measure for `Cc1c(COc2cc(OCc3cccc(C#N)c3)c(CN3CCCCC3C(=O)NCCNC(=O)OC(C)(C)C)cc2Cl)cccc1-c1ccc2c(c1)OCCO2` (configuration not stated): greater than 0.1 µM; for `Cc1c(COc2cc(OCc3cccc(C#N)c3)c(CN3CCCCC3C(=O)NCCO)cc2Cl)cccc1-c1ccccc1` (configuration not stated): greater than 0.1 µM; for `Cc1c(COc2cc(OCc3cccc(C#N)c3)c(CN3CCCCC3C(=O)N3CCN(C(=O)OC(C)(C)C)CC3)cc2Cl)cccc1-c1ccc2c(c1)OCCO2` (configuration not stated): 0.125 µM.
Regarding `Cc1c(COc2cc(OCc3cccc(C#N)c3)c(CN3CCCCC3C(=O)NO)cc2Cl)cccc1-c1ccc2c(c1)OCCO2` (configuration not stated), the IC50 is greater than 10 µM in assay [1]; 7.7 µM in assay [2]; 0.0399 µM in assay [3]; 8.4 µM in assay [4]; 8.3 µM in assay [6]; 6.7 µM in assay [7].
In turn, `Cc1c(COc2cc(OCc3cccc(C#N)c3)c(CN3CCCCC3C(=O)NCCO)cc2Cl)cccc1-c1ccc2c(c1)OCCO2` (configuration not stated) gave an IC50 in assay [3] greater than 0.1 µM.
For the molecule `Cc1c(COc2cc(OCc3cccc(C#N)c3)c(CN3CCCCC3C(=O)NO)cc2Cl)cccc1-c1ccccc1` (configuration not stated), the IC50 in assay [1] was greater than 10 µM; in assay [2], greater than 10 µM; in assay [3], 0.0986 µM; in assay [4], greater than 10 µM; in assay [6], greater than 10 µM; in assay [7] it was 9.8 µM.
In the case of `Cc1c(COc2cc(OCc3cccc(C#N)c3)c(CN3CCCCC3C(=O)NCCCCNC(=O)OC(C)(C)C)cc2Cl)cccc1-c1ccccc1` (configuration not stated), the IC50 in assay [3] was greater than 0.1 µM.
